Data as given in the CheMixHub viscosity set.

Assay: xn = mol fraction of the nth substance listed

CCC(=O)O + CC#N
101 kPa
Settings	viscosity [mPa·s]
298.15 K, x1 = 0.0727	0.3871
298.15 K, x1 = 0.1499	0.4326
298.15 K, x1 = 0.2322	0.49
298.15 K, x1 = 0.3199	0.5588
298.15 K, x1 = 0.4136	0.6378
298.15 K, x1 = 0.5141	0.7247
298.15 K, x1 = 0.6221	0.8156
298.15 K, x1 = 0.7383	0.9048
298.15 K, x1 = 0.864	0.9833
298.35 K, x1 = 0.00118	0.3554
298.36 K, x1 = 0.000675	0.3524
298.37 K, x1 = 0.001631	0.3536
299.33 K, x1 = 0.002851	0.3563
301.03 K, x1 = 0.00118	0.3451
301.05 K, x1 = 0.000675	0.3437
301.96 K, x1 = 0.002851	0.3511
302.04 K, x1 = 0.001631	0.3472
303.03 K, x1 = 0.00118	0.338
303.04 K, x1 = 0.000675	0.3378
304.04 K, x1 = 0.001631	0.3356
304.09 K, x1 = 0.002851	0.3401
305.01 K, x1 = 0.00118	0.3316
305.04 K, x1 = 0.000675	0.3319
305.99 K, x1 = 0.002851	0.3324
306.1 K, x1 = 0.001631	0.3288
308.03 K, x1 = 0.00118	0.3228
308.04 K, x1 = 0.000675	0.3223
308.15 K, x1 = 0.0727	0.3411
308.15 K, x1 = 0.1499	0.3841
308.15 K, x1 = 0.2322	0.4373
308.15 K, x1 = 0.3199	0.4999
308.15 K, x1 = 0.4136	0.5703
308.15 K, x1 = 0.5141	0.646
308.15 K, x1 = 0.6221	0.7227
308.15 K, x1 = 0.7383	0.7943
308.15 K, x1 = 0.864	0.8513
309 K, x1 = 0.002851	0.3236
309.06 K, x1 = 0.001631	0.3198
311.01 K, x1 = 0.000675	0.3134
311.01 K, x1 = 0.00118	0.3139
311.96 K, x1 = 0.002851	0.3161
312.06 K, x1 = 0.001631	0.3112
318.15 K, x1 = 0.0727	0.3007
318.15 K, x1 = 0.1499	0.345
318.15 K, x1 = 0.2322	0.3948
318.15 K, x1 = 0.3199	0.4493
318.15 K, x1 = 0.4136	0.5074
318.15 K, x1 = 0.5141	0.567
318.15 K, x1 = 0.6221	0.6251
318.15 K, x1 = 0.7383	0.6772
318.15 K, x1 = 0.864	0.7168

O=C(O)c1cccnc1 + O
viscosity [mPa·s]
Settings	100 kPa	101 kPa
298.15 K, x1 = 0.000225	0.8934	0.8934
298.15 K, x1 = 0.000268	0.903	–
298.15 K, x1 = 0.000452	0.8963	0.8963
298.15 K, x1 = 0.0005074	–	0.8966
298.15 K, x1 = 0.0007821	–	0.9016
298.15 K, x1 = 0.000808	0.908	–
298.15 K, x1 = 0.000907	0.902	0.902
298.15 K, x1 = 0.00135	0.913	–
298.15 K, x1 = 0.0015	–	0.893
298.15 K, x1 = 0.00162	0.916	–
303.15 K, x1 = 0.000542	0.809	–
303.15 K, x1 = 0.000808	0.812	–
303.15 K, x1 = 0.00108	0.814	–
308.15 K, x1 = 0.000452	–	0.7233
308.15 K, x1 = 0.0005074	–	0.7239
308.15 K, x1 = 0.00108	0.746	–
308.15 K, x1 = 0.001153	–	0.7288
308.15 K, x1 = 0.001301	–	0.7321
308.15 K, x1 = 0.00135	0.75	–
308.15 K, x1 = 0.00136	0.732	0.732
308.15 K, x1 = 0.001617	–	0.7347
308.15 K, x1 = 0.00162	0.754	–
308.15 K, x1 = 0.001957	–	0.7385
313.15 K, x1 = 0.000808	0.673	–
313.15 K, x1 = 0.00108	0.677	–
313.15 K, x1 = 0.00135	0.681	–
313.15 K, x1 = 0.00162	0.685	–
318.15 K, x1 = 0.000225	0.5976	0.5976
318.15 K, x1 = 0.000268	0.61	–
318.15 K, x1 = 0.000542	0.614	–
318.15 K, x1 = 0.0007	–	0.584
318.15 K, x1 = 0.0007821	–	0.602
318.15 K, x1 = 0.000808	0.617	–
318.15 K, x1 = 0.000907	0.6036	0.6036
318.15 K, x1 = 0.00108	0.62	–
318.15 K, x1 = 0.001153	–	0.6035
318.15 K, x1 = 0.00135	0.624	–
318.15 K, x1 = 0.00136	0.608	0.608
318.15 K, x1 = 0.0015	–	0.587
318.15 K, x1 = 0.001617	–	0.6081
318.15 K, x1 = 0.00162	0.628	–
318.15 K, x1 = 0.001957	–	0.61
318.15 K, x1 = 0.0022	–	0.589

Nc1cccc(Cl)c1 + Cc1ccccc1Cl
viscosity [mPa·s], 100 kPa
Settings	x1 = 0.0744	x1 = 0.1659	x1 = 0.2575	x1 = 0.3522	x1 = 0.4708	x1 = 0.5714	x1 = 0.6762	x1 = 0.7838	x1 = 0.8902
303.15 K	1.146	1.462	1.777	2.1	2.502	2.84	3.191	3.548	3.898
308.15 K	1.044	1.329	1.614	1.906	2.267	2.573	2.888	3.209	3.523
313.15 K	0.9401	1.196	1.45	1.71	2.033	2.304	2.585	2.871	3.149
318.15 K	0.8312	1.059	1.283	1.512	1.797	2.036	2.283	2.534	2.778

O=[N+]([O-])[O-].O=[N+]([O-])[O-].[Ni+2] + O
Settings	viscosity [mPa·s]
322.46 K, 100 kPa, x1 = 0.03889	1.225
